Key:
[1] = test system: Green gram (Vigna radiata); experiment: Green gram seedlings treated with LCO: root length; format: in vivo; settings: vs control seedlings without LCO, FIG. 28
Text: (§1) FIG. 28 represents a graph showing root length measured @ 10 DAS in beans, horse gram and green gram seedlings: untreated control and treated with LCO.

[2] = test system: Beans (Phaseolus vulgaris L); experiment: Beans seedlings treated with LCO: root length; format: in vivo; settings: vs control seedlings without LCO, FIG. 28
Text: as §1

Cabbage [3] = experiment: Cabbage microplot trial, WSF fortified with LCO (Example 1); format: in vivo, Cabbage (Enza zaden variety); settings: average, vs control (only WSF)
Description: Cabbage seedling (Enza zaden variety) were transplanted on 16 Oct. 2020 and the experiment was completed by end of December 2020. Experiment was conducted in 3*3 microplots in 9 replications for treatment and control, microplots were distributed in a completed random block experimental design. Treatment was imposed by fertigation at 3 times point with doses divided in to 22, 39 and 39% respectively (Table 6). Plants were grown by following the standard package of practices developed by the university of Agricultural Science Bangalore. [table] Treatment was in a complete random block design, with 9 replications per treatment. Following parameter/observation was recorded: • 1. Plant number per plot • 2. Fruit weight per plot • 3. Fruit weight per plant • 4. Vertical circumference • 5. Radial circumference Data were analysed with JMP software by comparing means using all pairs Tukey HSD. Error bars shown in graphs are SD. Bar graphs represent the mean. Different alphabet indicates significant difference between the treatment.

Corn [4] = experiment: Corn microplot trial, granular fertilizer fortified with LCO (Example 5); format: in vivo, Maize; settings: LCO at 22.5 ml per bag of GF, over control
Description: Maize seeds were sown directly to microplot on 29 Oct. 2020 and the experiment was completed by third week of January 2021. Experiment was conducted in 3*3 microplots in 7 replications for treatment and 6 replications for control, microplots were distributed in a completed random block experimental design. Treatment was imposed by fertigation at 2 times point with doses divided in to 50% each first at time of transplanting and second one at 40 days after transplanting (Table 11). Plants were grown by following the standard package of practices developed by the university of Agricultural Science Bangalore, for further details information have a look at the crop calendar (Table 11). [table] Treatment was in a complete random block design, with 7 replications per treatment and 6 replication per control. Following parameter/observation WAS recorded: • 1. Plant number per plot • 2. Plant height • 3. Chlorophyll content • 4. Stem girth • 5. Cob number • 6. Cob dry weight • 7. Yield/grain weight per plot or plant Data were analysed with JMP software by comparing means using all pairs Tukey HSD. Error bars shown in graphs are SD. Bar graphs represent the mean. Different alphabet indicates significant difference between the treatment. […] FIG. 8: Plant height were measured at three different time point viz 33, 53 and 138 days after sowing, data represented here are means and error bar represent standard deviation. NS denotes no significant difference between the treatment.

Cabbage [5] = experiment: Cabbage microplot trial, granular fertilizer fortified with LCO (Example 4); format: in vivo, Cabbage (Enza zaden variety)
[6] = test system: White French Beans seedlings; experiment: Seedling bioassay in tubes, WSF (19:19:19) fortified with LCO (Example 3); format: in vivo; settings: 10 days
Description: [table] Locally available beans variety were used for the study. Experiment was conducted in 50 ml falcon tube filled with soilrite which acts as growing substrate. Treatment solution as given in the table were prepared in demineralised water and 10 ml of respective solution were applied to each tube after sowing (2.5 cm depth). Fortified, unfortified WSF and LCO were tested at 2 doses along with absolute control. Subsequently, the seedlings were maintained under […] (200 […], 12 hrs light and dark), ambient temperature of 25 degree Celsius. The tubes were incubated for 10 days and irrigated with water as and when required. After 10 days, the experiment was terminated and the plants were phenotyped for recording the traits vz Hypocotyl length, epicotyl length, shoot length and root length.

Corn [7] = experiment: Corn pot study, LCO and urease inhibitor fortified urea and WSF (Example 6); format: in vivo; settings: urea study
Description: NBPT (N-(n-butyl) thiophosphoric triamide) was suspended in propylene glycol (PG) and dimethyl sulphoxide (DMSO) in the ratio of 20:50:30. In the current experiment two different doses of NBPT was fortified to the fertilizers, low dose consisting of 400 ppm and high dose 800 ppm was fortified per Kg of fertilizer.
The fortifying mixture consists of 0.7 ml of LCO (1.90e-5) and 2 ml of NBPT (400 ppm) was fortified to 1 Kg of fertilizer. Whereas another fortifying mixture consists of 0.7 ml of LCO (1.90e-5) and 4 ml of NBPT (800 ppm) was fortified to 1 Kg of fertilizer. After fortification samples were taken for conducting pot trails.
A pot study was conducted for evaluating LCO and Urease inhibitor fortified Urea and WSF on an experimental crop. Corn was selected as a subject crop for the pot study. The experiment consists of 13 treatments as listed below. The pot study is done in pots of 2 Kg soil capacity. The experiment duration is 20 days.
• 1. Untreated Control • 2. WSF • 3. WSF+LCO • 4. WSF+LCO+UI (Low-400 ppm) • 5. […]
From the onset of the experiment plant height and chlorophyll was measured at every 10th, 15th, and 20th day after sowing. Plant height and dry biomass of leaves and root were measured manually using scales, whereas chlorophyll was measured using chlorophyll meter. Leaf area was calculated based on the dry weight method, by developing a dry-weight weight versus leaf area curve for corn leaf samples of known area.
Available nitrogen from the soil was estimated from the soil samples using wet aggregate analysis method of estimation. […] The available nitrogen is expressed as kg/ha.
Total nitrogen as percent was determined from the dried plant samples using Kjeldahl method of estimation. The total nitrogen in plant is expressed as percentage. Nitrogen uptake was calculated by multiplying the shoot biomass with the nutrient concentration. Nitrogen use efficiency (NUE) is determined as the percent of the applied nitrogen that was taken up by the plants.
From the onset of the experiment plant height and chlorophyll was measured every 5 days interval starting from 10th DAS. […]

Cabbage [8] = experiment: Cabbage field study, bulk granular fertilizer with LCO (Example 7); format: in vivo; settings: bulk fertilizer combined with LCO compared to fertilizer alone
Description: The field experiment was conducted at an agricultural farm in Bangalore in Rabi season of 2020. The study was conducted in randomized complete block design with 7 treatments and 7 replications per treatment with each plot measuring approximately 9 m^2 in area (Table-12 & 13). Cabbage seedlings of a popular variety was used for the trial. Different grades of bulk fertilizers were available in market generally sold in 50 kg packages. The N:P:K-19:19:19 grade bulk fertilizer was used for the current study. Treatments of LCO fortified bulk fertilizer with 3 doses of LCO 11.25 ml, 22.5 ml, and 33.75 ml were formulated per 50 kg bag of fertilizer. The application dose was calculated based on the crop and standard fertilizer recommendation to the select crop. About 50% of calculated quantity of fertilizers were applied to the crop on a per plot basis as basal application at the time of planting and rest of the quantity of each treatment was applied at 40 days after transplanting (DAT). [table] […] The yield per plot was measured by weighing all the heads harvested from each plot. The vertical and horizontal diameter of the head was measured using a measuring tape and the volume of each cabbage head was calculated by the following formula V=4/3·π·(a)^2·b • Where, • V=Volume of the head • a=Horizontal diameter of the head • b=Vertical diameter of the head

Corn [9] = experiment: Corn field study, bulk granular fertilizer with LCO (Example 8); format: in vivo; settings: bulk fertilizer combined with LCO compared to fertilizer alone
Description: The field experiment was conducted at an agricultural farm in Bangalore in Rabi season of 2020. The study was conducted as randomized complete block design with 7 treatments with 9 replications and each plot measured about 9 m^2 in area. Hybrid corn seeds of a popular brand was used for the trial. Different grades of Bulk fertilizers are available in market generally sold in 50 kg packages. The N:P:K-19:19:19 grade bulk fertilizer was used for the current study. Bulk fertilizer was combined with 3 doses of LCO at the rate of 11.25 ml, 22.5 ml, and 33.75 ml per 50 kg bag of fertilizer. The application dose was calculated based on the crop and standard fertilizer recommendation to the select crop. About 50% quantity of the treatments were applied to the crop as basal application at the time of planting and rest of the quantity for each treatment was applied at 40 DAS. [table] [table] The trial was harvested in January 2021, when the cobs were fully matured. The yield parameters such as number of cobs per plot and cob yield per plot were recorded. The number of cobs per plot was normalized based on plant density per plot. The cobs of each plot were threshed separately and grain weight per plot was recorded and interpreted as Kg per plot normalized to number of plants per plot.

[10] = test system: Horse gram (Macrotyloma uniflorum); experiment: Horse gram seedlings treated with LCO: root length; format: in vivo; settings: vs control seedlings without LCO, FIG. 28
Text: as §1

Rice (Oryza sativa) = experiment: Rice seedlings treated with LCO: root length; format: in vivo; settings: vs control seedlings without LCO, FIG. 29
Text: (§2) FIG. 29 represents a graph showing root length measured @ 4 DAS in ragi and rice seedlings: untreated control and treated with LCO.

Capsicum = Capsicum net house trial, WSF fortified with LCO (Example 2); format: in vivo, Capsicum (Diana variety); settings: fortification of WSF with LCO vs WSF only
[11] = test system: finger millet (Eleusine coracana) seedlings; experiment: Ragi seedlings treated with LCO: root hairs and root length; format: in vivo
Text: FIG. 27 represents a graph showing number of root hairs in seedlings of ragi @ 3 DAS: untreated control (UTC) and treated with LCO.
as §2

[12] = at low pH; cited from earlier work

SMILES: CCCCCC/C=C\CCCCCCCCCC(=O)N[C@H]1[C@H](O[C@H]2[C@H](O)[C@@H](NC(C)=O)[C@H](O[C@H]3[C@@H](O)[C@@H](NC(C)=O)[C@H](O[C@H]4[C@H](O)[C@@H](NC(C)=O)[C@H](O[C@H]([C@H](O)[C@H](C=O)NC(C)=O)[C@H](O)CO)O[C@@H]4CO)O[C@@H]3O)O[C@@H]2CO)O[C@H](CO)[C@@H](O)[C@@H]1O [LCO, Lipo-chitooligosaccharide]
- root length, result in words [1]: increases the length of roots
- root length, result in words [2]: increases the length of roots
- increase in yield (Cabbage [3]; cabbage yield (kg/plot), LCO with or without proxel): 7%
- increase in circumference (Cabbage [3]; cabbage, WSF 19:19:19 with LCO with or without proxel): 2%
- increase in cob weight per plot (Corn [4]): ≤ 10
- increase in grain weight per plot (Corn [4]): ≤ 9
- increase in number of cobs per plant (Corn [4]): ≤ 18%
- cabbage circumference, result in words (Cabbage [5]; GF fortified with LCO vs control (only GF)): marginal increase in circumference of cabbage heads
- increase in circumference (Cabbage [5]; cabbage, GF 19:19:19 with LCO with or without proxel, average, vs control (only GF)): 0.4%
- Epicotyl length ([6]; concentration 8.75E−12 %): 1.75 cm
- Hypocotyl length ([6]; concentration 8.75E−12 %): 9 cm
- Root length ([6]; concentration 8.75E−12 %): 12.12 cm
- Shoot length (hypocotyl + Epicotyl length) ([6]; concentration 8.75E−12 %): 10.77 cm
- Epicotyl length ([6]; concentration 8.75E−14 %): 1.87 cm
- Hypocotyl length ([6]; concentration 8.75E−14 %): 8.3 cm
- Root length ([6]; concentration 8.75E−14 %): 13.41 cm
- Shoot length (hypocotyl + Epicotyl length) ([6]; concentration 8.75E−14 %): 10.26 cm
- total nitrogen (leaf nitrogen content), result in words (Corn [7]; 20 days old corn seedlings, Kjeldahl, FIG. 22): much higher than urea+UI at 400 ppm and equal to urea+UI at 800 ppm
- leaf dry weight, result in words (Corn [7]; corn seedlings, 20 DAS, FIG. 18): better than WSF alone
- leaf area, result in words (Corn [7]; corn seedlings, 20 DAS, FIG. 20): better than WSF alone
- average volume of cabbage heads, result in words (Cabbage [8]): enhanced average volume of cabbage heads
- average number of cobs per plot, result in words (Corn [9]): enhanced
- grain yield per plot, result in words (Corn [9]): enhanced
- root length, result in words [10]: increases the length of roots
- root length, result in words (Rice (Oryza sativa)): increases the length of roots
- capsicum yield, result in words (Capsicum): increase in yield, even though there is no statistically significant difference
- number of root hairs, result in words ([11]; 3 days after treatment, vs untreated control, FIG. 27): increase root hairs
- root length, result in words ([11]; vs control seedlings without LCO, FIG. 29): increases the length of roots

SMILES: CCCCNP(N)(N)=S [NBPT, N-(n-butyl) thiophosphoric triamide]
- time within which decayed [12]: ≤ 24 h

Source: patent US20260209135A1, “METHOD OF FORTIFYING FERTILIZER WITH LIPO-CHITOOLIGOSACCHARIDE (LCO)” (priority 2022, published 2026)
